The values below come from ChEMBL document CHEMBL1201862, “PubChem BioAssay data set” (2004).

Calls of active or inactive are those of the source.

Common to all, as to type: functional
Assay [1] concerns the target Cyclin-dependent kinase 19 (Homo sapiens, UniProt Q9BWU1). The assay is described as follows: Navigating the Kinome. Panel member name: CDC2L6.
For assay [2], the target named is ALK tyrosine kinase receptor (Homo sapiens, UniProt Q9UM73).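 Note: ALK tested as one member of a kinase panel screen.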
ALK tyrosine kinase receptor, sequence (Q9UM73 whole entry): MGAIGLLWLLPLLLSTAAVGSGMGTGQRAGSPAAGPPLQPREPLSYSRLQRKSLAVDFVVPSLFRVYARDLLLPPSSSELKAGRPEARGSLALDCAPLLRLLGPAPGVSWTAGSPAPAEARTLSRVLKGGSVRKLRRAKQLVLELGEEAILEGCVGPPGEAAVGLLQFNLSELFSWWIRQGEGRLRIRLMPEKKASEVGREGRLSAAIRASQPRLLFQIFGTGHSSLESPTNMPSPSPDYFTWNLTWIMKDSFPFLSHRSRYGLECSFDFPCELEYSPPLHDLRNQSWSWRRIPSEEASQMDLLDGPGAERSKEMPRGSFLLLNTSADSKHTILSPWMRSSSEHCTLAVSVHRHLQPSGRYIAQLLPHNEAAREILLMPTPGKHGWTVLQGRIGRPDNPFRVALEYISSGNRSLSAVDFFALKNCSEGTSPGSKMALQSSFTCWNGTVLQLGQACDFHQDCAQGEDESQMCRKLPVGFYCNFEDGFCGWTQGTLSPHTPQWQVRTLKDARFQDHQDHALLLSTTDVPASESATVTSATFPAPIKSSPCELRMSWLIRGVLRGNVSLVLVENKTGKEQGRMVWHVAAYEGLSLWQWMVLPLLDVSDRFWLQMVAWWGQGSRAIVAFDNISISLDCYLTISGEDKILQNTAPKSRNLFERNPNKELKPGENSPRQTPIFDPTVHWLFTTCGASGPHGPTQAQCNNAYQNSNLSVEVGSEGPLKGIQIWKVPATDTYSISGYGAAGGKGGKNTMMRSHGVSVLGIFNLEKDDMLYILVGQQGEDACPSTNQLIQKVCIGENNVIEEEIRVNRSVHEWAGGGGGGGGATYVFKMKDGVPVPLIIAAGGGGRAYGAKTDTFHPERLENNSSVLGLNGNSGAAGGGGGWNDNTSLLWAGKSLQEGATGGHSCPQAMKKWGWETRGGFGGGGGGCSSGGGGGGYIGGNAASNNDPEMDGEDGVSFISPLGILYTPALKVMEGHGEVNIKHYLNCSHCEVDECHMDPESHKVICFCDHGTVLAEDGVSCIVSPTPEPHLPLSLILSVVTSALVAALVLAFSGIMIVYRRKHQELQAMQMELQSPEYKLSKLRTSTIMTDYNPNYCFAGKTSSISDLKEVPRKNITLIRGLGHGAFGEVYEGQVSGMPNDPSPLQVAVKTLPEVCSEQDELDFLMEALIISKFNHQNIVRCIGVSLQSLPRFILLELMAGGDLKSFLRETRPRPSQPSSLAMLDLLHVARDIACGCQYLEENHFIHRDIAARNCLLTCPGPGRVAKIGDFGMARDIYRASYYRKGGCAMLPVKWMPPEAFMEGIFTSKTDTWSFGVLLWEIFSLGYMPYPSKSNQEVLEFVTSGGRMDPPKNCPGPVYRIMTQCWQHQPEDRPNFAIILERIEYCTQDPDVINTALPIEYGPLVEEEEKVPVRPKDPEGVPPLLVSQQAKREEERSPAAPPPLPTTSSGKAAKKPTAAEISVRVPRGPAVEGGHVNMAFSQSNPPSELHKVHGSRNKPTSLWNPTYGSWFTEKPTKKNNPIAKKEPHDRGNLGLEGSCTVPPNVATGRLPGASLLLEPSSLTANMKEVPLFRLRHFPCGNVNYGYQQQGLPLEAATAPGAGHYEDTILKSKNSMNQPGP
Assay [3] concerns the target T1, C-C chemokine receptor type 6 (Homo sapiens, UniProt P51684).
T1 sequence (P51684 whole entry): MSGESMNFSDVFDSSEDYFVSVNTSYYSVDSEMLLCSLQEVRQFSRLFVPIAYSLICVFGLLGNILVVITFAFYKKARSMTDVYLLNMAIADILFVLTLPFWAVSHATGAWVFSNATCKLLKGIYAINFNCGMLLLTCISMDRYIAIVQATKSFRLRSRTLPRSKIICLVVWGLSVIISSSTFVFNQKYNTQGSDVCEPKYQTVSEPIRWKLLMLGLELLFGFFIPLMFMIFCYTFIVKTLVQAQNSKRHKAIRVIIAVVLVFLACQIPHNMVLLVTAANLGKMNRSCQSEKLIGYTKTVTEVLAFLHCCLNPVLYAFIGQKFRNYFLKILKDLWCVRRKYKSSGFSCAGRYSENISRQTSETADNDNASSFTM
The assay is described as follows: CCR6 receptor antagonists, SAR follow-up, cell-based, luminescent beta-arrestin readout (AID 540334).

In the next assay the target is Apelin receptor (Homo sapiens, UniProt P35414). Put plainly: APJ beta-arrestin recruitment antagonism, SAR follow-up, selectivity assay for CCR6 antagonist project, cell-based, luminescent, enzyme-fragment complementation (AID 588359). (Activated receptors often draw arrestin, which recruitment assays turn into a signal.)
The target in assay [4] is C-X-C chemokine receptor type 5 (Homo sapiens, UniProt P32302). The assay is described as follows: CXCR5 receptor antagonists, SAR follow-up, selectivity assay for CCR6 antagonist project, cell-based, beta-arrestin, luminescence, CHO-K1 PathHunter (AID 540340).
Assay [5] addresses Tyrosine-protein kinase SYK (Homo sapiens, UniProt P43405).
Assay [6] deals with Mitogen-activated protein kinase kinase kinase kinase 4 (Homo sapiens, UniProt O95819).
Assay [7] deals with Tyrosine-protein kinase JAK2 (Homo sapiens, UniProt O60674).
Tyrosine-protein kinase JAK2, sequence (O60674 whole entry): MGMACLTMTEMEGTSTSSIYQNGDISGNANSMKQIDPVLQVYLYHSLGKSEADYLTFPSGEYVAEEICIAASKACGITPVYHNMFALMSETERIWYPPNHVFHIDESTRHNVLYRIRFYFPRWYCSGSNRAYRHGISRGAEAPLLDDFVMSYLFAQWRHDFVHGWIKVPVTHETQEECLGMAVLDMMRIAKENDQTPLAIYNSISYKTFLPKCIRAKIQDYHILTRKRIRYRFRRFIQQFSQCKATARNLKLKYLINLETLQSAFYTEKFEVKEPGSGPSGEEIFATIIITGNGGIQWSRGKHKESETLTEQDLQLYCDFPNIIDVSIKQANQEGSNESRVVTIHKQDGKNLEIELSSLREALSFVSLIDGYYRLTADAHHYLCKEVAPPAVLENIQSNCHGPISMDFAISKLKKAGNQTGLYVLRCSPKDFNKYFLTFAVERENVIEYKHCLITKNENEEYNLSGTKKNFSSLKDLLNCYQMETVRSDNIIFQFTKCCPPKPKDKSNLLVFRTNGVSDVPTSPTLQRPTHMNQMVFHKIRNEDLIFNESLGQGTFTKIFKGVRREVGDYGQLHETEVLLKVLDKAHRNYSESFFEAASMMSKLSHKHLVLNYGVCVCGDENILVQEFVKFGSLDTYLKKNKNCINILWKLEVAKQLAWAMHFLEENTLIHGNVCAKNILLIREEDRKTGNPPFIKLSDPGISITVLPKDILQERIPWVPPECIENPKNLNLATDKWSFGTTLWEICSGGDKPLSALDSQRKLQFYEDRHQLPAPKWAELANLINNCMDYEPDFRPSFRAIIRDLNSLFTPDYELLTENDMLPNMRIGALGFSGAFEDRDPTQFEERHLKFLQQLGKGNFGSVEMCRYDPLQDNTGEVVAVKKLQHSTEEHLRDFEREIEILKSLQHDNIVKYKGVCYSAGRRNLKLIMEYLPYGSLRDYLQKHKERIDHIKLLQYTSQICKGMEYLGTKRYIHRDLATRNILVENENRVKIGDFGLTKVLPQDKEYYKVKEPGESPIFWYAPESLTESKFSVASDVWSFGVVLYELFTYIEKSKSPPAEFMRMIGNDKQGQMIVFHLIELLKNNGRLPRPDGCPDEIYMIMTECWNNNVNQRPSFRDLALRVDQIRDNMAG
Assay [8] concerns the target Serine/threonine-protein kinase pim-3 (Homo sapiens, UniProt Q86V86).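 Note: value obtained as one member of a broad kinase panel profiling effort.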
Assay [9] addresses Casein kinase II subunit alpha (Homo sapiens, UniProt P68400).
Assay [10] has as its target Serine/threonine-protein kinase BRSK1 (Homo sapiens, UniProt Q8TDC3).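 Note: measured within a kinome-wide kinase panel, with the target listed as KIAA1811.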
Assay [11] has as its target Serine/threonine-protein kinase pim-1 (Homo sapiens, UniProt P11309).
Assay [12] has as its target Serine/threonine-protein kinase D3 (Homo sapiens, UniProt O94806).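 Note: determined within a kinase panel screen, with PRKCN as the panel member.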
Assay [13] has as its target Rho-associated protein kinase 1 (Homo sapiens, UniProt Q13464).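 Note: measured within a broad kinome-wide panel profiling many kinases.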
Assay [14] has as its target Serine/threonine-protein kinase D2 (Homo sapiens, UniProt Q9BZL6).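 Note: measured against PRKD2 as one member of a kinome-wide kinase profiling panel.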
Assay [15] concerns the target Glycogen synthase kinase-3 beta (Homo sapiens, UniProt P49841).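 Note: value comes from a broad kinome profiling panel, with GSK3B as the panel member.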
The target in a further assay is Aurora kinase A (Homo sapiens, UniProt O14965).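 Note: value from the Navigating the Kinome kinase panel profiling, panel entry STK6.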
Aurora kinase A, sequence (O14965 whole entry): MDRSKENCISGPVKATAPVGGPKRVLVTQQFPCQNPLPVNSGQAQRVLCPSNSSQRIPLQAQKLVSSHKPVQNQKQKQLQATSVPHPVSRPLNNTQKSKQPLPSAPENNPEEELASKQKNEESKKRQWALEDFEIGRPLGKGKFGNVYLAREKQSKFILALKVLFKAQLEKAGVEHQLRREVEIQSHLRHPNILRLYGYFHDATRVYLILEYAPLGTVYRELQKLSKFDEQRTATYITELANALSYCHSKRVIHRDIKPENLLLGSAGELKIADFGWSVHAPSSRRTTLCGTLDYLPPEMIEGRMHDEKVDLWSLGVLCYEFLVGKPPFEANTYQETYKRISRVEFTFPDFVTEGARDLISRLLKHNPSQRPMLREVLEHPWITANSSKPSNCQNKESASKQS
The nature of assay [16]: A cytotoxicity screen of small molecule inhibitors of the PhoP region in Salmonella typhi identified in the primary screen. [Related pubchem assays: 1850, 1864, 1985 ].
The target of assay [17] is Tyrosine-protein kinase FRK (Homo sapiens, UniProt P42685).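 Note: FRK tested as one member of a kinome panel.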
Assay [18] has as its target Platelet-derived growth factor receptor alpha (Homo sapiens, UniProt P16234). The assay is described as follows: Navigating the Kinome. Panel member name: PDGFRA.
The target of a further assay is Activin receptor type-1 (Homo sapiens, UniProt Q04771). The assay is described as follows: Navigating the Kinome. Panel member name: ACVR1.
Assay [19] deals with Leucine-rich repeat serine/threonine-protein kinase 2 (Homo sapiens, UniProt Q5S007).
Assay [20] concerns the target High affinity nerve growth factor receptor (Homo sapiens, UniProt P04629).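 Note: NTRK1 tested as one member of a kinome-wide profiling panel.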
In assay [21] the target is Mitogen-activated protein kinase 13 (Homo sapiens, UniProt O15264).
The target of assay [22] is Leukocyte tyrosine kinase receptor (Homo sapiens, UniProt P29376). Put plainly: Navigating the Kinome. Panel member name: LTK.
The target of assay [23] is Dual specificity tyrosine-phosphorylation-regulated kinase 1B (Homo sapiens, UniProt Q9Y463). Put plainly: Navigating the Kinome. Panel member name: DYRK1B.
Assay [24] deals with T2, Sentrin-specific protease 8 (Homo sapiens, UniProt Q96LD8).
T2 sequence (Q96LD8 whole entry): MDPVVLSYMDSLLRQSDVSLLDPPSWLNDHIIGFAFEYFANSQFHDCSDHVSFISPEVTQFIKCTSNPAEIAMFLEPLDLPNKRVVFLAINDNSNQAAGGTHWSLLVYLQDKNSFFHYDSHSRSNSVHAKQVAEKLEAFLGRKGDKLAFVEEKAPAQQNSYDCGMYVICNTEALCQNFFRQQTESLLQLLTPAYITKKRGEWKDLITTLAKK
Put plainly: SENP8 protease inhibitors, SAR follow-up, biochemical, luminescence (AID 504501).

For assay [25], the target named is T3, Sentrin-specific protease 6 (Homo sapiens, UniProt Q9GZR1).
T3 sequence (Q9GZR1 whole entry): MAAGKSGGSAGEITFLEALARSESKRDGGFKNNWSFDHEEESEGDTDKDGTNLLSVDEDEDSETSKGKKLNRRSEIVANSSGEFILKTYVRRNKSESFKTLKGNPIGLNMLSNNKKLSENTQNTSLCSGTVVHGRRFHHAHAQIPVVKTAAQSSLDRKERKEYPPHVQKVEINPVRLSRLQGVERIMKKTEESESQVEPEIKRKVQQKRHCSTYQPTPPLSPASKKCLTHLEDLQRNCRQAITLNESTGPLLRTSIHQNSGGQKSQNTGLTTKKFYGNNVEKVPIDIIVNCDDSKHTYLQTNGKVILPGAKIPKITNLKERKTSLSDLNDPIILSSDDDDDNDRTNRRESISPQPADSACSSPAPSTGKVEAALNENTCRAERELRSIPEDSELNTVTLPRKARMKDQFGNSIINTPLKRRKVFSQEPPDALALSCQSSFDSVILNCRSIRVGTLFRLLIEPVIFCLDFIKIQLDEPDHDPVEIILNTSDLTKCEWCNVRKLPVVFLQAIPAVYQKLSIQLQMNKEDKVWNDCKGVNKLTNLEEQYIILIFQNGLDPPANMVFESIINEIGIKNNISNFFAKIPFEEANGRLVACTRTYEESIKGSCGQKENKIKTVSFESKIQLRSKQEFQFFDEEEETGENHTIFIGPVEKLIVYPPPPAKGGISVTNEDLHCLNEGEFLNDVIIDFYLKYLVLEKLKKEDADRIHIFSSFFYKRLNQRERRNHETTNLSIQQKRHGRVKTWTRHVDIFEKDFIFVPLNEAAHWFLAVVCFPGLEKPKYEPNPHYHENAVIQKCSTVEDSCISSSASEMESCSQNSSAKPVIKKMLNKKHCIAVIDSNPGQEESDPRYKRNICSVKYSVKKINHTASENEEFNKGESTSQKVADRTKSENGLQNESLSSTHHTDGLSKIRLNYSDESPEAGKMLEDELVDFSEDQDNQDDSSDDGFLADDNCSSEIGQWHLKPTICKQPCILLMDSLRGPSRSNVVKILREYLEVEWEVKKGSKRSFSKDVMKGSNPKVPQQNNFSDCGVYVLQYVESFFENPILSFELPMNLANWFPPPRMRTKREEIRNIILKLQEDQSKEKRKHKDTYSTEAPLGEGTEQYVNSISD
The assay is described as follows: SAR Analysis of small molecule inhibitors of Sentrin-specific protease 6 (SENP6) using a Luminescent assay. [Related pubchem assays (depositor defined):AID2582, AID2599].

The target of the next assay is T4, Caspase-3 (Homo sapiens, UniProt P42574).
T4 sequence (P42574 whole entry): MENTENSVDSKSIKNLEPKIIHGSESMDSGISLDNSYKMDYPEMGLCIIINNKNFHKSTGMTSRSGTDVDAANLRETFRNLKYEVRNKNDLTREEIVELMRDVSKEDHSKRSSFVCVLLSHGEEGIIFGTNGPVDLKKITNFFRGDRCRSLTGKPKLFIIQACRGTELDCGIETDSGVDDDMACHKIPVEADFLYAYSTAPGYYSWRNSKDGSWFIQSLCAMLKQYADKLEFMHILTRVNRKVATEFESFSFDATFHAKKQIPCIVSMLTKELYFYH
Put plainly: SAR Analysis of small molecule inhibitors of Sentrin-specific proteases (SENPs) using a Caspase-3 Selectivity assay. [Related pubchem assays (depositor defined):AID2540, AID2599, AID434973, AID489001].

The target of assay [26] is T5, Sentrin-specific protease 7 (Homo sapiens, UniProt Q9BQF6).
T5 sequence (Q9BQF6 whole entry): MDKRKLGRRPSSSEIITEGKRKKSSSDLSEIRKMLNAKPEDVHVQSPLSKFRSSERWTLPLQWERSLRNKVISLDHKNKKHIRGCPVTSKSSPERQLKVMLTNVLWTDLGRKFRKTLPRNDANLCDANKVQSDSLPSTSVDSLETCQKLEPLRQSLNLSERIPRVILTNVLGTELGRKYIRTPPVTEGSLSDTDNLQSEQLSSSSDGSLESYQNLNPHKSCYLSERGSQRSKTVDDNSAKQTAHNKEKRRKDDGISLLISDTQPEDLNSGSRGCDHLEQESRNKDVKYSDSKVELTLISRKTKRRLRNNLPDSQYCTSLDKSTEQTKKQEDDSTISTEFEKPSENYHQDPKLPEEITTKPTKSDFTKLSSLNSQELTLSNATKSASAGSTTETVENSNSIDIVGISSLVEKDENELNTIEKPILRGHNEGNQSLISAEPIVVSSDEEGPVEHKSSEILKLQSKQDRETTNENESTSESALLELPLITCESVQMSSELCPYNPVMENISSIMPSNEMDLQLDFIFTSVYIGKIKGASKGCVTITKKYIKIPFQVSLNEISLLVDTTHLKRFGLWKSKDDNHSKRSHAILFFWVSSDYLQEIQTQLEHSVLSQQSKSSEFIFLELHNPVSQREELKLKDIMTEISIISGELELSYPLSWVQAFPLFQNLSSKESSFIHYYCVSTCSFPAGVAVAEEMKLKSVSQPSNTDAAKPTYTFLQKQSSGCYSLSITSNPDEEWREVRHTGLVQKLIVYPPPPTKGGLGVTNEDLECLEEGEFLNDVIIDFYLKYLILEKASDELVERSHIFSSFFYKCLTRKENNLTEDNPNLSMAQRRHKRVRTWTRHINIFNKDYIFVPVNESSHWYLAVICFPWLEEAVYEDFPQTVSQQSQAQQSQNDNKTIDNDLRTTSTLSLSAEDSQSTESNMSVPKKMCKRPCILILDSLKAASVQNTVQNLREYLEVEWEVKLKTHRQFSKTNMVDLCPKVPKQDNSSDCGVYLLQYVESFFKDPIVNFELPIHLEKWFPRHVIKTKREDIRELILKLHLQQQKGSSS
Put plainly: SENP7 protease inhibitors, SAR follow-up, biochemical, luminescence (AID 504497).

The next assay addresses Wee1-like protein kinase (Homo sapiens, UniProt P30291). The assay is described as follows: Navigating the Kinome. Panel member name: WEE1.

Serine/threonine-protein kinase D2, sequence (Q9BZL6 whole entry): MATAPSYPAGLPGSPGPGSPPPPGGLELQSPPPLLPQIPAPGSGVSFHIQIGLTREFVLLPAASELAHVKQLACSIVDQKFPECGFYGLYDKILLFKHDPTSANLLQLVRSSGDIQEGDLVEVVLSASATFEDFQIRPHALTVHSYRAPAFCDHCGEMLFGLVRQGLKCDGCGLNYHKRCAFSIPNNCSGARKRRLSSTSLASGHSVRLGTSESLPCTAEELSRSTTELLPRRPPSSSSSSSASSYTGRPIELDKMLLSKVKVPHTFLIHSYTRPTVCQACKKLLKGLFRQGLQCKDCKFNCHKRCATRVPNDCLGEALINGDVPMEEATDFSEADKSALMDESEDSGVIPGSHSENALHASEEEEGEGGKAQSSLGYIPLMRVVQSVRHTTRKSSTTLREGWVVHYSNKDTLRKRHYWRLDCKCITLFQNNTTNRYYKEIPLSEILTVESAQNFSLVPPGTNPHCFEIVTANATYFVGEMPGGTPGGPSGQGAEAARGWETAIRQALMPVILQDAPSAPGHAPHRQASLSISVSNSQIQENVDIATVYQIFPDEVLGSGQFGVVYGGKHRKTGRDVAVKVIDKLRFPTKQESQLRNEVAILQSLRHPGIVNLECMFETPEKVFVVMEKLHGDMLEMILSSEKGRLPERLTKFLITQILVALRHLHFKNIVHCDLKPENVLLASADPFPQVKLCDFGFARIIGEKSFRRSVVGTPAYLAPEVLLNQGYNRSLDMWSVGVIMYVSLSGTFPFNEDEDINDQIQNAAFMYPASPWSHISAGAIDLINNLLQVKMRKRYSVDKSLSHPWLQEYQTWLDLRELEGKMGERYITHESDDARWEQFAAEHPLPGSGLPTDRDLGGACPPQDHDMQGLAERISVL
High affinity nerve growth factor receptor, sequence (P04629 whole entry): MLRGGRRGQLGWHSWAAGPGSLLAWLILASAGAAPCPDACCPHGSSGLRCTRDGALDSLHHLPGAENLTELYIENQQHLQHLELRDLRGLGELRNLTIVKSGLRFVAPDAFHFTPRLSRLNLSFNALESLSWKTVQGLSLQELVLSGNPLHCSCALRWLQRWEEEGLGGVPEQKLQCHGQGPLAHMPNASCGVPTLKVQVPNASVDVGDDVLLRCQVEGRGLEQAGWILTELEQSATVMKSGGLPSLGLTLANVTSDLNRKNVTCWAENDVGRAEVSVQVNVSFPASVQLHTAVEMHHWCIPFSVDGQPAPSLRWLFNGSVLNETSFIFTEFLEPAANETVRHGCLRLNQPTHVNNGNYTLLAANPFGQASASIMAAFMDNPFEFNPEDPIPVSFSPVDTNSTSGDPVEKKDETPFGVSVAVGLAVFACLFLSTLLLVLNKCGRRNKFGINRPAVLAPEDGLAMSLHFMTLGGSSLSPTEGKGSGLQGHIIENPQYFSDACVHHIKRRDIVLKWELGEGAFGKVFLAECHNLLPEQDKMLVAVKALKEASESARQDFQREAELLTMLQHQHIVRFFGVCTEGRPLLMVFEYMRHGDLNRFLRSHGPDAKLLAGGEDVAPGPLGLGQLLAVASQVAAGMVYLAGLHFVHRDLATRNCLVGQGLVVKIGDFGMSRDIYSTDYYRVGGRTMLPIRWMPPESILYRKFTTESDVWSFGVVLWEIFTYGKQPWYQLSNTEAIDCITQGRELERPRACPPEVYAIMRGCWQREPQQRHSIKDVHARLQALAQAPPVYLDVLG

Broadly, the Ki is the dissociation constant of the complex between target and ligand, obtained from inhibition or displacement. As for `Cc1ccc(NC(=O)Nc2ccc(-c3csc4c(-c5cnn(CC(=O)N(C)C)c5)cnc(N)c34)cc2)cc1`, the Ki in assay [1] was > 100 µM (inactive); in assay [2], 158 nM (active).
By IC50 is commonly meant the concentration needed to halve the response being measured. For `Cc1cccc2c1N(CCCOc1ccc(C(C)(C)C)cc1)C(=O)C2=O`, the results for the IC50 (in [3]; at Apelin receptor; in [4]) were > 66.6 µM (inactive), > 66.6 µM (inactive) and 24.3 µM (inactive), respectively.
As to `CCN(CC)CCOc1ccc(Nc2ncc3cc(-c4c(Cl)cccc4Cl)c(=O)n(C)c3n2)cc1` [PD-0166285], the Ki was 79.4 nM (active) in assay [5], 79.4 nM (active) in assay [6] and 39.8 nM (active) in assay [7].
For `O=C1ON=C(c2ccc(Br)cc2)C1=Cc1ccc2c(c1)OCO2`, the Ki in [8] is 7.94 µM (active); in assay [9] it was 1.58 µM (active); in assay [10] it was 10 µM (active); in [11], 2 µM (active).
On to `NC(=O)c1ccc(N(C(N)=O)c2c(F)cccc2F)nc1-c1ccc(F)cc1F` [VX-702], for which the Ki was 2.51 µM (active) in assay [12], 2.51 µM (active) in assay [13] and 5.01 µM (active) in assay [14].
A word on the EC50: it is the concentration giving half of the maximal effect. Consider `O=C(Nc1ccccc1)Nc1nccs1`, for which the Ki in [15] is 10 µM (active); at Aurora kinase A it was 15.8 µM (active). Further, the EC50 in [16] was > 50 µM (active).
Consider `COc1cccc(C(C)NC(=O)c2ccc(-c3ccncc3)cc2)c1` (stereo not drawn), for which the Ki in assay [17] was > 2.51 µM (inactive); in assay [18], > 2.51 µM (inactive); on Activin receptor type-1, > 3.98 µM (inactive); in assay [19], > 2.51 µM (inactive); in [20], > 2.51 µM (inactive); in [21], > 7.94 µM (inactive). Moreover, the Ki in [22] is > 2.51 µM (inactive); in [7], > 2510 nM (inactive); in assay [23], > 2.51 µM (inactive).
Consider `Cc1c(C(=O)Nc2nc3ccc(Cl)cc3s2)oc2ccccc12`, for which the IC50 (in assay [24]; in assay [25]; at Caspase-3; in assay [26]) was > 99 µM (inactive) each time.
As to `Cc1cnc(Nc2ccc(N3CCN(C)CC3)cc2)nc1Nc1cccc(S(=O)(=O)NC(C)(C)C)c1`, the Ki on Wee1-like protein kinase is 126 nM (active); in assay [2], 501 nM (active).
